Measurements reported in patent US20230134376A1, “METHOD FOR QUANTITATIVE IMAGING OF THE METABOLIC STATUS OF A LESION” (priority 2020, published 2023).

What was measured:
[1] = test system: NADH/NAD+ ratio; assay: FLIM phasor quantification of NADH/NAD+ ratio (anaerobic glycolysis) in incisional skin wound; assay type: in vivo, mice (C57Bl6/J); conditions: for NADH/NAD+ ratio in perilesional area vs untreated condition (in words): comparison between first 10 values of each condition, t-test; for line slope of linear regression of NADH/NAD+ ratio vs untreated (in words): deviation between slopes test; for slope of gradient of NADH/NAD+ ratio vs distance from wound: untreated −0.267±0.06
Text: FIG. 2: Measurement of anaerobic glycolysis in wound by FLIM quantification of NADH/NAD^+ ratio. Phasor analysis of free and bound NADH fluorescence allows a quantification of their relative increase. A, map of a gradient of NADH/NAD+ ratio (grey). Wound margin is highlighted with a dashed line. All scale bars 100 μm. B, phasor analysis of FLIM NADH fluorescence. NADH region of the phasor plot was divided in five sub-regions along the major axis and each is associated with an intensity value (0-20, 20-40, 40-60, 60-80, 80-100). […] D, NADH/NAD^+ ratio percentage as a function of distance from wound (grey). […] NADH/NAD^+ ratio is lower in perilesional area of DCA-treated mice (grey line vs grey line of D, comparison between first 10 values of each condition, t-test ****, P<0.0001). n=3 mice.
FIG. 8. Effect of the mitochondrial respiratory chain in the measurement of NADH/NAD^+ ratio as expression of glycolysis in wound. A, NADH/NAD^+ ratio percentage as a function of distance from wound. […] NADH/NAD^+ ratio is lower in perilesional area of Antimycin A-treated mice (bottom graph vs grey line for untreated condition, comparison between first 10 values of each condition, t-test, P<0.0001). […] B, map of a gradient of NADH/NAD+ ratio (grey) in wound in untreated (n=4) or mice treated with Rotenone (n=3) and Antimycin A (n=2). Wound margin is highlighted with a dashed line. All scale bars 20 μm.
On day 1 after wounding, FLIM images were acquired with 2PM and stitched to produce lifetime XYZ mosaics (600-1000 μm wide and 200 μm deep) (FIG. 2a). Common FLIM imaging has slow acquisition times, which are required to collect enough photons to reconstruct a time decay curve. This was compensated by the use of a time correlated single-photon counting (TCSPC) 16-channel parallel detector, with an average counting speed of 80 MHz which allowed faster 3D scanning of the mosaic over lesion area^31. The ratio of free to protein-bound NADH has been known to be associated with the ratio of NAD^+ to NADH in small intestine epithelial cells^32 and breast cancer cells^33. Protein-bound NADH has a complex multi-exponential lifetime decay that has been related to its binding to different enzymes, such as malate dehydrogenase and lactate dehydrogenase^34. Standard approaches revolved on a characterization by fitting with a two-exponential curve, corresponding to a short or long lifetime range. This approximation is however misleading because free and protein-bound NADH have common exponential components and the NADH binding sites with different enzymes cannot be considered^32, 35. In fact, in our case this approach was ineffective to discriminate between untreated and DCA-treated mice (FIG. 7). […] Instead, phasor analysis^32, 36 was used. In accordance with a previous report^37, we designed an analysis that first divides the phasor cloud into five regions (FIG. 2b) corresponding to a gradient of prevailing anaerobic glycolysis in regions of lower lifetimes towards a region where more oxidative phosphorylation occurs. Pixels attributed to each region were then associated to discrete values of decreasing intensity, and therefore quantification of pixel intensity on the resulting image was proportional to the relative increase in anaerobic glycolysis. By linearizing images, we obtained a spatial distribution of anaerobic glycolysis from wound profile (FIG. 2c). At lesion margin, gradient of NADH/NAD^+ ratio corresponded to 29.1±0.4% and decreased until to 2.6±0.1% distance (range of 200-500 μm) from the wound. The decrease was evaluated with a linear regression fitting as the simplest fitting model for testing the overall deviation from zero slope curve (linear regression fitting with a slope of −0.050±0.0016 μm^−1; black line with 95% CL bands; deviation from zero slope test, P<0.0001) (FIG. 2d). An increased anaerobic glycolysis around wound margins was also evident in XZ maximum intensity projection images of the maps (FIG. 2e). […]

[2] = test system: excisional skin wound; assay: Full-thickness excisional skin wound healing model, kinetic analysis of wound area; assay type: in vivo, mice (C57BL/6J); conditions: for DCA-mediated delayed wound closure (measurement of wound area) compared to control mice: single administration 300 mg/Kg i.p. 1 h prior skin wounding
Protocol: FIG. 1: In vivo relevance of the cell metabolic adaptation in skin repair. The excisional skin wound healing model was used. Left, kinetic analysis of skin wound areas was performed. Values represent mean±SD. Right, representative macroscopic images of untreated and DCA treated mice are shown at the indicated days after wounding. Bar, 5 mm. *P<0.05, **P<0.01; Student's t-test. Untreated, n=8; DCA, n=9. One experiment shown out of two performed with similar number of animals.
In order to determine the relevance of wound acidification in healing outcome in vivo, the pyruvate dehydrogenase kinase (Pdk) inhibitor dichloroacetate (DCA) was used in a model of full-thickness excisional skin wounding to promote glucose oxidation over anaerobic glycolysis, thus interfering with local acidosis.
Excisional model of skin injury. A full-thickness excisional skin injury model was performed as previously described^7. Mice were anesthetized with 10 μL/g of weight of Ketamine (final concentration 10 mg/mL) and Xylazine (final concentration 1 mg/mL) in saline buffer. As described^7, a full-thickness wound (from skin to underlying panniculus carnosus) was generated with disposable biopsy punch (8-mm diameter). Gentamicin was immediately applied to limit gross bacterial infections, not evident from histological examination carried out at different time points of the experiment. Mice were optionally treated with a solution of sodium dichloroacetate (DCA; Sigma-Aldrich Corp.), which was injected i.p. in 10-12 weeks-old C57BL/6J with a dosage of 300 mg/Kg 1 h before skin wounding. PBS or saline were used in control mice. As previously described^7, the skin wounds of each mouse were digitally photographed and measured during wound healing by tracing them on a transparency, calculated with the ImageJ-Fiji software, and the variations in time expressed as a percentage of the initial wound area.

| Molecule | anaerobic glycolysis (NADH/NAD+ ratio) at perilesional area ([1]; DCA 300 mg/Kg i.p., 1 h, mean of the first 10 values, untreated 29.1±0.4%, P<0.0001) | gradient steepness, slope of linear regression of NADH/NAD+ ratio vs distance from wound ([1]; DCA 300 mg/Kg i.p., 1 h, untreated −0.050±0.0016, P<0.0001) | NADH lifetime decays in perilesional regions fitted with a two-exponential decay function, treated vs untreated ([1]; Student t-test, P>0.05) | NADH/NAD+ ratio in perilesional area vs untreated condition (in words) [1] | line slope of linear regression of NADH/NAD+ ratio vs untreated (in words) ([1]; P<0.0001) | DCA-mediated delayed wound closure (measurement of wound area) compared to control mice ([2]; day 1, P=0.005) | DCA-mediated delayed wound closure (measurement of wound area) compared to control mice ([2]; day 2, P=0.004) | DCA-mediated delayed wound closure (measurement of wound area) compared to control mice ([2]; day 3, P=0.05) | DCA-mediated delayed wound closure (measurement of wound area) compared to control mice ([2]; day 4, P=0.02) | DCA-mediated delayed wound closure (measurement of wound area) compared to control mice ([2]; day 5, P=0.002) | DCA-mediated delayed wound closure (measurement of wound area) compared to control mice ([2]; day 6, P=0.01) | DCA-mediated delayed wound closure (measurement of wound area) compared to control mice ([2]; day 7, P=0.03) | wound closure curve compared to mice treated with vehicle alone ([2]; single administration 300 mg/Kg 1 h prior skin wounding, n=9 vs n=8) | glycolysis in regions distant from the wound ([1]; Rotenone 20 μM local) | slope of gradient of NADH/NAD+ ratio vs distance from wound ([1]; Rotenone 20 μM local (i.d.) 1 h before imaging, P<0.0001) | fraction of anaerobic glycolysis at wound margin ([1]; Rotenone 20 μM local (i.d.), untreated 20.28±0.41%, P>0.05) | slope of gradient of NADH/NAD+ ratio vs distance from wound ([1]; Antimycin A 5 μM i.d. 1 h before imaging, P<0.0001) | glycolysis at wound margin (NADH/NAD+ ratio) ([1]; Antimycin A 5 μM i.d., untreated 20.28±0.41%, P<0.0001) |
| --- | --- | --- | --- | --- | --- | --- | --- | --- | --- | --- | --- | --- | --- | --- | --- | --- | --- | --- |
| O=C([O-])C(Cl)Cl.[Na+] [DCA, sodium dichloroacetate] | 8.0±0.2% | −0.035±0.0023 μm^−1 | could not show significant differences | lower | reduction in line slope | −28.3% | −27.1% | −22.5% | −24.5% | −30.5% | −20.4% | −17.4% | significantly delayed curve | – | – | – | – | – |
| C=C(C)[C@H]1Cc2c(ccc3c2O[C@@H]2COc4cc(OC)c(OC)cc4[C@@H]2C3=O)O1 [Rotenone] | – | – | – | no significant decrease in value | significant reduction in line slope | – | – | – | – | – | – | – | – | increased glycolysis in regions distant from the wound | −0.113±0.002 μm^−1 | 20.08±0.21% | – | – |
| Antimycin A | – | – | – | lower | reduction in line slope | – | – | – | – | – | – | – | – | – | – | – | −0.046±0.08 μm^−1 | 8.37±0.49% |
